According to patent US6592910B1, “Methods of treating clinical diseases with isoflavones” (Board of Trustees, Southern Illinois University, priority 1999, dated 2003):
Marks after values point to notes of the source that are not given here.

What was measured:
male Sprague-Dawley rats [1] = experiment: Liver weight, cholesterol and triglyceride in male Sprague-Dawley rats injected for 6 weeks; format: in vivo, rat; conditions: for Liver total triglycerides: as triolein; for Liver total triglycerides / Liver cholesteryl esters / Liver total cholesterol / Liver unesterified cholesterol / Liver weight: daily s.c. injection, 6 weeks; for liver weight as a % of body weight, compared with V: rat, in vivo
Experimental: (§1) Forty male Sprague-Dawley rats (5 wk old, n=9-10 rats/treatment, from Harlan Sprague-Dawley, Inc., Indianapolis, Ind.) were injected with either genistein (G), daidzein (D), estradiol (E), or a vehicle control (V). Each animal in group V received a daily 0.1 cc subcutaneous injection, for six weeks, of a 10% ethanol-90% olive oil solution; the other treatments received their respective compound as a daily 0.1 cc subcutaneous injection, for six weeks, e.g., 0.1 μg of compound/g of body weight, in a 10% ethanol-90% olive oil solution. Animal weight and feed intake were measured weekly during the six week study, and the subsequent feed-efficiency ratio [FER (g of weight change/g of feed intake)] was determined. Following sacrifice, the abdominal fat pads, liver, and reproductive organs were removed and weighed for comparison. Collected blood was heparinized and centrifuged, plasma aliquots were then used for glucose and total cholesterol determinations, using standard glucose oxidase (Fisher Scientific, St. Louis, Mo.) and cholesterol kits (Fisher Scientific, St. Louis, Mo.). Liver cholesterol and triglyceride analysis. Analytical procedures for determination of liver total cholesterol, unesterified cholesterol, cholesteryl ester, and triglyceride concentrations were as described in Example 1. These studies used a randomized design. All data were analyzed by one-way analysis of variance (ANOVA) and post-hoc comparisons were made with Tukey pairwise comparisons test. Significance was confirmed at P≦0.05 (SYSTAT 7.0, SPSS INC., 1997), and all values are reported as means±standard error of the mean.

[2] = test system: Cu,Zn superoxide Dimutase (SOD); experiment: Liver Cu,Zn superoxide dimutase activity in injected rats; format: in vivo, rat; conditions: daily s.c. injection, 6 weeks; P<0.05
Experimental: (§2) Forty male Sprague-Dawley rats (5 wk old, n=9-10 rats/treatment, from Harlan Sprague-Dawley, Inc., Indianapolis, Ind.) were injected with either genistein (G), daidzein (D), estradiol (E), or a vehicle control (V). Each animal in group V received a daily 0.1 cc subcutaneous injection, for six weeks, of a 10% ethanol-90% olive oil solution; the other treatments received their respective compound as a daily 0.1 cc subcutaneous injection, for six weeks, e.g., 0.1 μg of compound/g of body weight, in a 10% ethanol-90% olive oil solution.
The activity or level of antioxidant enzymes (AOE), catalase (CAT) and Cu,Zn superoxide Dimutase (SOD) in rat liver, were measured to determine the effect of administration of G, D, and E injections on free radical defense systems. A 50 mg piece of whole frozen liver was removed and sonicated in TBS plus 1% Triton X-100. The samples were then centrifuged at 13,000×g for 25 min at 4° C., and the supernatant was collected. Total protein concentration was assayed for subsequent determinations of hepatic AOE activity or absolute level per milligram total protein. SOD activity was determined by spectrophotometry at I=560 nm using xanthine/xanthine oxidase as a superoxide generator and measured against a standard curve of known SOD activities (Sun et al. 1988, 1994). Catalase levels were determined bv Slot blot, which was performed following a representative Western blot that detected no nonspecific binding (Tobin et al. 1979). The bands corresponding to catalase were quantified by densitometry.
(§3) These studies used a randomized design. All data were analyzed by one-way analysis of variance (ANOVA) and post-hoc comparisons were made with Tukey pairwise comparisons test. Significance was confirmed at P≦0.05 (SYSTAT 7.0, SPSS INC., 1997), and all values are reported as means±standard error of the mean.

male Sprague-Dawley rats [3] = experiment: Feed and weight measurements in male Sprague-Dawley rats injected for 6 weeks; format: in vivo, rat; conditions: for Fat Weight: visceral fat
Experimental: as §2
Animal weight and feed intake were measured weekly during the six week study, and the subsequent feed-efficiency ratio [FER (g of weight change/g of feed intake)] was determined. Following sacrifice, the abdominal fat pads, liver, and reproductive organs were removed and weighed for comparison.
as §3

male Sprague-Dawley rats [4] = experiment: Plasma glucose and plasma total cholesterol in male Sprague-Dawley rats injected for 6 weeks; format: in vivo, rat; conditions: 6 weeks injection
Experimental: as §1, with “solution.” for “solution. Animal weight and feed intake were measured weekly during the six week study, and the subsequent feed-efficiency ratio [FER (g of weight change/g of feed intake)] was determined. Following sacrifice, the abdominal fat pads, liver, and reproductive organs were removed and weighed for comparison.”

[5] = test system: stenotic arteries of female macaques; conditions: intravenous infusion; cited from earlier work

Compound | Liver triglyceride concentrations compared to the E treatment (male Sprague-Dawley rats [1]; P<0.05) | Liver weights vs the V group (male Sprague-Dawley rats [1]; P<0.05) | Liver total triglycerides (male Sprague-Dawley rats [1]) | Liver cholesteryl esters (male Sprague-Dawley rats [1]) | Liver total cholesterol (male Sprague-Dawley rats [1]) | Liver unesterified cholesterol (male Sprague-Dawley rats [1]) | Liver weight (male Sprague-Dawley rats [1]) | liver weight as a % of body weight, compared with V (male Sprague-Dawley rats [1]) | elevation of liver SOD activity over vehicle controls [2] | Body Weight (male Sprague-Dawley rats [3]; daily s.c. injection, 6 weeks) | Fat Weight (male Sprague-Dawley rats [3]; daily s.c. injection, 6 weeks) | Body, testis, and prostate weight compared to D, G, and V treated animals (male Sprague-Dawley rats [3]; rat, in vivo) | plasma cholesterol levels vs the V group (male Sprague-Dawley rats [4]) | vasoconstriction in stenotic arteries [5] | Prostate Weight (male Sprague-Dawley rats [3]; daily s.c. injection, 6 weeks) | Testis Weight (male Sprague-Dawley rats [3]; daily s.c. injection, 6 weeks)
O=c1c(-c2ccc(O)cc2)coc2cc(O)ccc12 [D, daidzein] | significantly (P<0.05) lower | considerably (P<0.05) lower | 17.980 μmol/g liver | 3.114 μmol/g liver | 5.678 μmol/g liver | 2.563 μmol/g liver | 12.857^a g | reduction in relative liver mass | approximately 33% | 367.89 g | 11.66 g |  |  |  |  | 
C[C@]12CC[C@@H]3c4ccc(O)cc4CC[C@H]3[C@@H]1CC[C@@H]2O [E, estradiol, reference compound] |  |  | 32.186^c μmol/g liver | 4.104^a,b μmol/g liver | 6.722^a,b,c μmol/g liver | 2.618 μmol/g liver | 10.487^a,b,c g |  | approximately 33% | 242.50^a,b,c g | 6.71^a,b,c g | markedly (P<0.05) lower |  |  |  | 
O=c1c(-c2ccc(O)cc2)coc2cc(O)cc(O)c12 [G, genistein] |  | considerably (P<0.05) lower | 29.528 μmol/g liver | 2.589 μmol/g liver | 5.189 μmol/g liver | 2.600 μmol/g liver | 12.970^a g | reduction in relative liver mass | 15% | 363.00 g | 11.19 g |  | non-significant trend (P<0.5) toward lower | rapid inhibition | .732 g | 2.90 g
